Patent publication US20210395696A1, “ISOLATED NASOPHARYNGEAL CARCINOMA CELLS AND DERIVATIVES PREPARED THEREOF” (INSTITUTE FOR MEDICAL RESEARCH, priority 2018, published 2021)

Assays:
[1] = system: gfp-luc2-labelled PDX cells (NPC), subcutaneous model; assay: Drug testing in subcutaneous tumour model of gfp-luc2-labelled PDX; format: in vivo, NSG mice; details: 2 mg/kg i.p. weekly for 3 weeks, bioluminescence imaging
Protocol: (§1) All experiments were performed in accordance with national regulations and were approved by the AC UC of Ministry of Health, Malaysia. NSG mice, 6-8 weeks old were anaesthetized using Ketamine-Xylazine (100 mg/ml and 10 mg/ml).
(§2) To test the effect of drug on tumour growth inhibition, subcutaneous and/or metastatic model were used. For subcutaneous model, 2×10^5 cells of gfp-luc2 cells were resuspended in RPMI and mixed with matrigel at 1:1 ratio and injected into the right flank. For metastatic model, 2×10^5 cells of gfp-luc2 cells were resuspended in 100 μl of RPMI and injected into left ventricle. Weekly bioluminescence imaging (BLI) were carried out to monitor the progress of tumour growth using VIS Spectrum.
(§3) When tumour volume reached to 50-150 mm^3 or once the signal intensity reached 1×10^4 (average radiance, p/sec/cm^2/sr) mice were randomised into control or treatment group. Treatment commenced 35 days post inoculation. Mice were treated with vehicle (0.9% NaCl) or cisplatin (2 mg/kg) via intraperitoneal (i.p.) injection, weekly for 3 weeks. Tumour volume was measured thrice weekly using callipers and BLI was carried out weekly. Mice were observed daily for general wellbeing and tumour burden.

[2] = system: gfp-luc2-labelled PDX cells (NPC), metastatic model; assay: Drug testing in metastatic tumour model of gfp-luc2-labelled PDX (intra-cardiac injection); format: in vivo, NSG mice; details: metastatic model (left ventricle injection); 2 mg/kg i.p. weekly for 3 weeks; bioluminescence imaging
Protocol: as §1, §2, §3

N.N.[Cl][Pt][Cl] [cisplatin]
tumour response as measured by the luminescence signals intensity [1]: tumour regression | tumour response as measured by the luminescence signals intensity [2]: tumour regression
